The values that follow come from US20240043404A1 (AbbVie Inc., priority 2009, published 2024).

In the assay the test system is RS4;11 cells. Kind of assay: RS4;11 cell viability assay (CellTiter Glo).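 Further: acute lymphoblastic leukemia line RS4,11, EC50 derived from percentage of viable cells after treatment relative to untreated controls, cell killing taken as a measure of Bcl-2 inhibition.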 Format: cell-based, human. The note with it: Homo sapiens, RS4-11, 48 h, 50,000 cells per well, 10% human serum, 48 hours; read-out: RS4; 11 EC50 Values.
Method: The acute lymphoblastic leukemia (ALL) cell line RS4;11 was used as the primary human cell line to assess the cellular activity of Bcl-2 selective agents in vitro and their efficacy in vivo.
Cell cytotoxicity EC50 values were assessed using CellTiter Glo (Promega) according to the manufacturer's recommendations. The EC50 values were determined as a percentage of viable cells following treatment compared to the untreated control cells.
Take `CC1(C)CCC(CN2CCN(c3ccc(C(=O)NS(=O)(=O)c4ccc(NCc5cccc(OC(F)F)c5)c([N+](=O)[O-])c4)c(Oc4cnc5[nH]ccc5c4)c3)CC2)=C(c2ccc(Cl)cc2)C1` [Example 187, 4-(4-{[2-(4-chlorophenyl)-4,4-dimethylcyclohex-1-en-1-yl]methyl}piperazin-1-yl)-N-[(4-{[3-(difluoromethoxy)benzyl]amino}-3-nitrophenyl)sulfonyl]-2-(1H-pyrrolo[2,3-b]pyridin-5-yloxy)benzamide]: the EC50 stood at 215 nM. Regarding `CC1(C)CCC(CN2CCN(c3ccc(C(=O)NS(=O)(=O)c4ccc(OC[C@H]5CC[C@H](O)CC5)c(Cl)c4)c(Oc4cnc5[nH]ccc5c4)c3)CC2)=C(c2ccc(Cl)cc2)C1` [Example 305, N-({3-chloro-4-[(trans-4-hydroxycyclohexyl)methoxy]phenyl}sulfonyl)-4-(4-{[2-(4-chlorophenyl)-4,4-dimethylcyclohex-1-en-1-yl]methyl}piperazin-1-yl)-2-(1H-pyrrolo[2,3-b]pyridin-5-yloxy)benzamide], the EC50 is 32.5 nM.

For the compound `CC1(C)CCC(CN2CCN(c3ccc(C(=O)NS(=O)(=O)c4ccc(NCC5CN(CC(=O)O)CCO5)c([N+](=O)[O-])c4)c(Oc4cnc5[nH]ccc5c4)c3)CC2)=C(c2ccc(Cl)cc2)C1` (stereo not drawn) [Example 216, (2-{[(4-{[4-(4-{[2-(4-chlorophenyl)-4,4-dimethylcyclohex-1-en-1-yl]methyl}piperazin-1-yl)-2-(1H-pyrrolo[2,3-b]pyridin-5-yloxy)benzoyl]sulfamoyl}-2-nitrophenyl)amino]methyl}morpholin-4-yl)acetic acid], the EC50 was 683 nM. The result for `CC1(C)CCC(CN2CCN(c3ccc(C(=O)NS(=O)(=O)c4ccc(OCc5ccoc5)c([N+](=O)[O-])c4)c(Oc4cnc5[nH]ccc5c4)c3)CC2)=C(c2ccc(Cl)cc2)C1` [Example 279, 4-(4-{[2-(4-chlorophenyl)-4,4-dimethylcyclohex-1-en-1-yl]methyl}piperazin-1-yl)-N-{[4-(3-furylmethoxy)-3-nitrophenyl]sulfonyl}-2-(1H-pyrrolo[2,3-b]pyridin-5-yloxy)benzamide] reads 225 nM.

`CC1(C)CCC(CN2CCN(c3ccc(C(=O)NS(=O)(=O)c4ccc(NC[C@@H]5CC[C@H](O)C5)c([N+](=O)[O-])c4)c(Oc4cnc5[nH]ccc5c4)c3)CC2)=C(c2ccc(Cl)cc2)C1` [Example 159, 4-(4-{[2-(4-chlorophenyl)-4,4-dimethylcyclohex-1-en-1-yl]methyl}piperazin-1-yl)-N-{[4-({[(1R,3S)-3-hydroxycyclopentyl]methyl}amino)-3-nitrophenyl]sulfonyl}-2-(1H-pyrrolo[2,3-b]pyridin-5-yloxy)benzamide]: the EC50 was 11.8 nM. As for `CC1(C)CCC(CN2CCN(c3ccc(C(=O)NS(=O)(=O)c4cnc(O[C@H]5CC[C@H](N6CCOCC6)CC5)c(Br)c4)c(Oc4cnc5[nH]ccc5c4)c3)CC2)=C(c2ccc(Cl)cc2)C1` [Example 124, Trans-N-({5-bromo-6-[(4-morpholin-4-ylcyclohexyl)oxy]pyridin-3-yl}sulfonyl)-4-(4-{[2-(4-chlorophenyl)-4,4-dimethylcyclohex-1-en-1-yl]methyl}piperazin-1-yl)-2-(1H-pyrrolo[2,3-b]pyridin-5-yloxy)benzamide], the EC50 amounted to 212 nM. Then `CCN(C)C(=O)N1CCOC(CNc2ccc(S(=O)(=O)NC(=O)c3ccc(N4CCN(CC5=C(c6ccc(Cl)cc6)CC(C)(C)CC5)CC4)cc3Oc3cnc4[nH]ccc4c3)cc2Cl)C1` (stereo not drawn) [Example 333, 2-{[(2-chloro-4-{[4-(4-{[2-(4-chlorophenyl)-4,4-dimethylcyclohex-1-en-1-yl]methyl}piperazin-1-yl)-2-(1H-pyrrolo[2,3-b]pyridin-5-yloxy)benzoyl]sulfamoyl}phenyl)amino]methyl}-N-ethyl-N-methylmorpholine-4-carboxamide], with 463 nM; and `CC1(C)CCC(CN2CCN(c3ccc(C(=O)NS(=O)(=O)c4cnc(OCC(C)(CO)CO)c(Cl)c4)c(Oc4cnc5[nH]ccc5c4)c3)CC2)=C(c2ccc(Cl)cc2)C1` [Example 250, N-({5-chloro-6-[3-hydroxy-2-(hydroxymethyl)-2-methylpropoxy]pyridin-3-yl}sulfonyl)-4-(4-{[2-(4-chlorophenyl)-4,4-dimethylcyclohex-1-en-1-yl]methyl}piperazin-1-yl)-2-(1H-pyrrolo[2,3-b]pyridin-5-yloxy)benzamide], with > 1000 nM.

With `CC1(C)CCC(CN2CCN(c3ccc(C(=O)NS(=O)(=O)c4ccc(NC5CCS(=O)(=O)CC5)c([N+](=O)[O-])c4)c(Oc4cnc5[nH]ccc5c4)c3)CC2)=C(c2ccc(Cl)cc2)C1` [Example 81, 4-(4-{[2-(4-chlorophenyl)-4,4-dimethylcyclohex-1-en-1-yl]methyl}piperazin-1-yl)-N-({4-[(1,1-dioxidotetrahydro-2H-thiopyran-4-yl)amino]-3-nitrophenyl}sulfonyl)-2-(1H-pyrrolo[2,3-b]pyridin-5-yloxy)benzamide], the EC50 stood at 48.1 nM. Then `CC1(C)CCC(CN2CCN(c3ccc(C(=O)NS(=O)(=O)c4cnc(NCC5CN(C6CC6)CCO5)c(Cl)c4)c(Oc4cnc5[nH]ccc5c4)c3)CC2)=C(c2ccc(Cl)cc2)C1` (stereo not drawn) [Example 335, N-[(5-chloro-6-{[(4-cyclopropylmorpholin-2-yl)methyl]amino}pyridin-3-yl)sulfonyl]-4-(4-{[2-(4-chlorophenyl)-4,4-dimethylcyclohex-1-en-1-yl]methyl}piperazin-1-yl)-2-(1H-pyrrolo[2,3-b]pyridin-5-yloxy)benzamide], with 270 nM; and `CC1(C)CCC(CN2CCN(c3ccc(C(=O)NS(=O)(=O)c4ccc(N[C@H]5CCN(C6CC6)C5)c([N+](=O)[O-])c4)c(Oc4cnc5[nH]ccc5c4)c3)CC2)=C(c2ccc(Cl)cc2)C1` [Example 142, 4-(4-{[2-(4-chlorophenyl)-4,4-dimethylcyclohex-1-en-1-yl]methyl}piperazin-1-yl)-N-[(4-{[(3S)-1-cyclopropylpyrrolidin-3-yl]amino}-3-nitrophenyl)sulfonyl]-2-(1H-pyrrolo[2,3-b]pyridin-5-yloxy)benzamide], with 345 nM. In the case of `CC(C)N1CCC2(CCC(c3ccc(Cl)cc3)=C(CN3CCN(c4ccc(C(=O)NS(=O)(=O)c5cnc(OCC6CCOCC6)c(Cl)c5)c(Oc5cnc6[nH]ccc6c5)c4)CC3)C2)CC1` [Example 268, 4-(4-{[9-(4-chlorophenyl)-3-isopropyl-3-azaspiro[5.5]undec-8-en-8-yl]methyl}piperazin-1-yl)-N-{[5-chloro-6-(tetrahydro-2H-pyran-4-ylmethoxy)pyridin-3-yl]sulfonyl}-2-(1H-pyrrolo[2,3-b]pyridin-5-yloxy)benzamide], the EC50 was 48.8 nM.

With `CC1(C)CCC(CN2CCN(c3ccc(C(=O)NS(=O)(=O)c4ccc(OC[C@H]5CC[C@H](N6CCOCC6)CC5)c(Cl)c4)c(Oc4cnc5[nH]ccc5c4)c3)CC2)=C(c2ccc(Cl)cc2)C1` [Example 303, N-[(3-chloro-4-{[trans-4-(morpholin-4-yl)cyclohexyl]methoxy}phenyl)sulfonyl]-4-(4-{[2-(4-chlorophenyl)-4,4-dimethylcyclohex-1-en-1-yl]methyl}piperazin-1-yl)-2-(1H-pyrrolo[2,3-b]pyridin-5-yloxy)benzamide], the EC50 amounted to 47.8 nM. The result for `CC1(C)CC(c2ccc(Cl)cc2)=C(CN2CCN(c3ccc(C(=O)NS(=O)(=O)c4ccc(NCC5CCOCC5)c(S(=O)(=O)C(F)(F)F)c4)c(Oc4cnc5[nH]ccc5c4)c3)CC2)CO1` [Example 43, 4-(4-{[4-(4-chlorophenyl)-6,6-dimethyl-5,6-dihydro-2H-pyran-3-yl]methyl}piperazin-1-yl)-2-(1H-pyrrolo[2,3-b]pyridin-5-yloxy)-N-({4-[(tetrahydro-2H-pyran-4-ylmethyl)amino]-3-[(trifluoromethyl)sulfonyl]phenyl}sulfonyl)benzamide] reads 272 nM.

With `CC1(C)CCC(CN2CCN(c3ccc(C(=O)NS(=O)(=O)c4ccc(NCC5CN(C6CC6)CCO5)c(Cl)c4)c(Oc4cnc5[nH]ccc5c4)c3)CC2)=C(c2ccc(Cl)cc2)C1` (stereo not drawn) [Example 332, N-[(3-chloro-4-{[(4-cyclopropylmorpholin-2-yl)methyl]amino}phenyl)sulfonyl]-4-(4-{[2-(4-chlorophenyl)-4,4-dimethylcyclohex-1-en-1-yl]methyl}piperazin-1-yl)-2-(1H-pyrrolo[2,3-b]pyridin-5-yloxy)benzamide], the EC50 was found to be 457 nM. Take `CC1(C)CCC(CN2CCN(c3ccc(C(=O)NS(=O)(=O)c4ccc(OCC5(F)CCN(C(=O)OC(C)(C)C)CC5)c([N+](=O)[O-])c4)c(Oc4cnc5[nH]ccc5c4)c3)CC2)=C(c2ccc(Cl)cc2)C1` [Example 126, tert-butyl 4-{[4-({[4-(4-{[2-(4-chlorophenyl)-4,4-dimethylcyclohex-1-en-1-yl]methyl}piperazin-1-yl)-2-(1H-pyrrolo[2,3-b]pyridin-5-yloxy)benzoyl]amino}sulfonyl)-2-nitrophenoxy]methyl}-4-fluoropiperidine-1-carboxylate]: the EC50 was 53.6 nM. For `CC1(C)CCC(CN2CCN(c3ccc(C(=O)NS(=O)(=O)c4cnc(OC[C@@H]5CN(C6CC6)CCO5)c(Cl)c4)c(Oc4cnc5[nH]ccc5c4)c3)CC2)=C(c2ccc(Cl)cc2)C1` [Example 314, N-[(5-chloro-6-{[(2S)-4-cyclopropylmorpholin-2-yl]methoxy}pyridin-3-yl)sulfonyl]-4-(4-{[2-(4-chlorophenyl)-4,4-dimethylcyclohex-1-en-1-yl]methyl}piperazin-1-yl)-2-(1H-pyrrolo[2,3-b]pyridin-5-yloxy)benzamide], the EC50 is 660 nM. The result for `CC1(C)CCC(CN2CCN(c3ccc(C(=O)NS(=O)(=O)c4cnc(OCC5(F)CCN(CC(F)F)CC5)c(Cl)c4)c(Oc4cnc5[nH]ccc5c4)c3)CC2)=C(c2ccc(Cl)cc2)C1` [Example 285, N-[(5-chloro-6-{[1-(2,2-difluoroethyl)-4-fluoropiperidin-4-yl]methoxy}pyridin-3-yl)sulfonyl]-4-(4-{[2-(4-chlorophenyl)-4,4-dimethylcyclohex-1-en-1-yl]methyl}piperazin-1-yl)-2-(1H-pyrrolo[2,3-b]pyridin-5-yloxy)benzamide] reads 57.4 nM.
